In the NIST ThermoML archive (doi:10.1021/je200972w):
Numbers after ± are expanded uncertainties.

Conditions: Liquid, Ebulliometric method (Recirculating still)

Row | Structure (SMILES) | vapor or sublimation pressure (329 K) | vapor or sublimation pressure (337.42 K)
1 | CC(C)=O [acetone] | 100 ± 0.7 kPa | 
2 | CO [methanol] |  | 100 ± 0.7 kPa
